Structures can show the parent of a compound that is named as a salt.
Columns and labels:
[1] = Enhancement of insulin uptake after powder inhalation in a rat model (blood glucose); type: in vivo, rats; conditions: for Effect (decrease in blood glucose level): rats, inhaled powder; for enhancement of polypeptide (insulin) absorption in the lung: rat model of Example 2, substance tested as enhancer
Method: Each of the compounds listed in Table I was tested for its ability to enhance uptake of a polypeptide (insulin) in a rat model.
Various forms of insulin were employed in the different trials: recombinant human, semisynthetic human or bovine. Each formulation was prepared as above, drying and processing the insulin/enhancer or insulin/enhancer/lactose solution to produce an inhalable powder. The powder was administered to rats by inhalation, and the blood glucose levels of the rats were subsequently monitored as a measure of insulin uptake. These levels were compared to the corresponding values obtained from rats which had inhaled insulin formulations without enhancer.

[2] = system: CaCo-2 epithelial cell monolayer; assay: CaCo-2 epithelial cell monolayer transport assay; type: in vitro ADME; conditions: for transport rate across the monolayer: CaCo-2, up to 16 mM sodium caprate
Method: A standard in vitro assay utilizing an epithelial cell line, CaCo-2 (available through the American Type Culture Collection (ATCC), Rockville, Md., USA), has been developed to assess the ability of various enhancer compounds to promote transport of markers across an epithelial cell monolayer, as a model for the epithelial cell layer which functions in the lung to separate the alveolus from the pulmonary blood supply.
In this assay, the enhancer and polypeptide or other marker are dissolved in aqueous solution at various proportions and/or concentrations, and applied to the apical side of the cell monolayer. After 60 min incubation at 37° C. and 95% RH (relative humidity), the amount of the marker on the basolateral side of the cells is determined, e.g., by use of a radioactively labelled marker.

[3] = design: species or system rats; conditions: rat, in vivo
Method: The mixture was milled in a Retsch mechanical mill to a particle size of mass median diameter 6.7 μm. The resultant powder was administered intratraceally in rats and the uptake of hGH compared with that of a powder, MMD 9.6 μm, comprising hGH and mannitol in the same proportions and prepared in the same way as above.

[4] = Enhancer:Insulin:lactose 2:4:94, vs insulin without enhancer
[5] = Enhancer:Insulin:lactose 4:4:92, vs insulin without enhancer
[6] = Enhancer:Insulin:lactose 25:75:0, vs insulin without enhancer

Row | Compound | enhancement of polypeptide (insulin) absorption in the lung [1] | Effect (decrease in blood glucose level) [1, 5] | also measured
1 | CCCCCCCCCC(=O)OC[C@H](COP(=O)([O-])OCC[N+](C)(C)C)OC(=O)CCCCCCCCC [Didecanoylphospatidylcholine] |  |  | Effect (decrease in blood glucose level) ([1]; Enhancer:Insulin:lactose 4:4:94, vs insulin without enhancer): −
2 | CCCCCCCC(=O)OCC(COP(=O)([O-])OCC[N+](C)(C)C)OC(=O)CCCCCCC (centres unmarked) [Dioctanoylphosphatidylcholine] |  |  | Effect (decrease in blood glucose level) [1, 4]: (+)
3 | CCCCCCCCOC1O[C@H](CO)[C@@H](O)[C@H](O)[C@H]1O (some centres unmarked) [Octylglucopyranoside] | some absorption enhancing properties | (+) | 
4 | CCCCCCCCCC(=O)[O-].[K+] [Potassium caprate] | effective |  | Effect (decrease in blood glucose level) ([1]; Enhancer:Insulin:lactose 27:73:0, vs insulin without enhancer): +
5 | CCCCCCCC/C=C\CCCCCCCC(=O)[O-].[K+] [Potassium oleate] |  | + | 
6 | CCCCCCCCCC(=O)[O-].[Na+] [Sodium caprate] | perform well | + | amount of marker (mannitol) which appears on the basolateral side, insulin added ([2]; CaCo-2 monolayer, 1:3 sodium caprate:insulin by weight (FIG. 2)): This is true; amount of marker (mannitol) which appears on the basolateral side ([2]; CaCo-2 monolayer, 60 min, 37° C., up to 16 mM sodium caprate (FIG. 1)): dependent upon the concentration of enhancer used; Effect (decrease in blood glucose level) ([1]; Enhancer:Insulin:lactose 10:90:0, vs insulin without enhancer): (+); Effect (decrease in blood glucose level) ([1]; Enhancer:Insulin:lactose 17.5:82.5:0, vs insulin without enhancer): (+); Effect (decrease in blood glucose level) [1, 6]: +
7 | CCCCCCCC(=O)[O-].[Na+] [Sodium caprylate] |  |  | Effect (decrease in blood glucose level) [1, 6]: −
8 | C[C@H](CCC(=O)NCC(=O)[O-])[C@H]1CC[C@H]2[C@@H]3[C@H](O)C[C@@H]4C[C@H](O)CC[C@]4(C)[C@H]3C[C@H](O)[C@]12C.[Na+] [Sodium glycocholate] | effectively enhance polypeptide absorption in the lung | + | 
9 | CCCCCCCCCCCC(=O)[O-].[Na+] [Sodium laurate] | perform well |  | Effect (decrease in blood glucose level) [1, 6]: (+)
10 | CCCCCCCCCCCCCC(=O)[O-].[Na+] [Sodium myristate] | perform well |  | Effect (decrease in blood glucose level) ([1]; Enhancer:Insulin:lactose 30:70:0, vs insulin without enhancer): +
11 | C[C@H](CCC(=O)NCCS(=O)(=O)O)[C@H]1CC[C@H]2[C@@H]3[C@H](O)C[C@@H]4C[C@H](O)CC[C@]4(C)[C@H]3C[C@H](O)[C@]12C [Sodium taurocholate] | effectively enhance polypeptide absorption in the lung | + | 
12 | CC(=O)OC1CC2(C)C(CC(O)C3C4(C)CCC(O)C(C)C4CCC32C)C1=C(CCCC(C)C)C(=O)NCCS(=O)(=O)O (centres unmarked) [Sodium taurodihydrofusidate] | effectively enhance polypeptide absorption in the lung |  | Effect (decrease in blood glucose level) [1, 4]: +
13 | C[C@H](CCC(=O)[O-])[C@H]1CC[C@H]2[C@@H]3[C@@H](O)C[C@@H]4C[C@H](O)CC[C@]4(C)[C@H]3CC[C@]12C.[Na+] [Sodium ursodeoxycholate] | effectively enhance polypeptide absorption in the lung | + | 
14 | O=C(O)CN(CCN(CC(=O)O)CC(=O)O)CC(=O)O [sodium salt of ethylenediaminetetraacetic acid] | ineffective |  | 
15 | Dimethyl-β-cyclodextrin | absorption enhancing effect |  | Effect (decrease in blood glucose level) ([1]; Enhancer:Insulin:lactose 75:25:0, vs insulin without enhancer): +
16 | Lysine caprate | effective |  | Effect (decrease in blood glucose level) ([1]; Enhancer:Insulin:lactose 35:65:0, vs insulin without enhancer): +
17 | Lysophosphatidylcholine | effective enhancer | + | 
18 | albumin |  |  | transport rate across the monolayer [2]: no increase in transport rate
19 | carbonic anhydrase |  |  | transport rate across the monolayer [2]: no increase in transport rate
20 | cytochrome C |  |  | transport rate across the monolayer [2]: no increase in transport rate
21 | hGH: Human hormone (hGH, MW 22 kD, source Humatrope from Lilly), 3 parts mixed with sodium caprate (1 part), milled powder |  |  | uptake of hGH [3]: improvement in the uptake
